Experimental data: patent publication US20240254164A1, “PURIFICATION OF SPECIFIC TRIPEPTIDE BY ACIDIFICATION” (DSM IP Assets B.V., priority 2021, published 2024)
One block for each molecule: values may come before it. Non-standard residues stand in square brackets, D forms with d. Residues, ends and D or L forms follow the SMILES beside them. Met(O2) = CS(=O)(=O)CC[C@H](N)C(=O)O

Tests used:
Format in all cases: physicochemical
[1] = Precipitation of different acidified tripeptides from aqueous solution heated to reflux and cooled to room temperature; conditions: 0.5 mol/L aqueous solution, reflux, cooled to room temperature
Source text: Aqueous solutions of different tripeptides acidified to the pH as given in table 2 were heated to reflux temperature. The clear solutions (0.5 mol/L) have been cooled to room temperature.
The fine particles of example 3 formed at the bottom of the vessel have been collected by a filtration over a glass frit filter.

[2] = Precipitation of the tripeptide from aqueous LiOH solution on acidification with HCl and cooling to 4° C.; conditions: 54 mg in 0.2 ml 0.1 M aqueous LiOH, pH lowered from 9 with 2M HCl, cooled to 4° C.
Procedure: 54 mg Ac-Met(O2)-Val-Val-OH have been dissolved in 0.2 ml 0.1 M aqueous LiOH. A clear solution is formed. The pH was lowered from 9 to the pH as indicated in table 1 by adding 2M HCl and cooled to a temperature of 4° C.
In example 1, a precipitation the tripeptide in fine particles at the bottom of the vessel was observed is formed which was separated by filtration over a glass frit filter.

[3] = Precipitation of acidified tripeptide dissolved in water at reflux and cooled to 4° C. (Example 2); conditions: pH 1.9; 67.3 g in 500 ml water at reflux, cooled to 4° C. within 2.5 hours, kept 30 minutes
Procedure: 67.3 g acidified Ac-Met(O2)-Val-Val-OH was dissolved in 500 ml water (pH 1.9 of solution) at reflux. The solution was cooled to 4° C. within 2.5 hours and kept at 4° C. during 30 minutes.

[4] = Susceptibility against oxidation by atmospheric oxygen; conditions: compared to the corresponding tripeptide Ac-Met-Val-Val-OH

Observation after cooling ([1]; pH 1.5): No particles formed
SMILES: CC(=O)N[C@@H](CCC(N)=O)C(=O)N1CCC[C@H]1C(=O)N[C@@H](C)C(=O)O [Ac-Gln-Pro-Ala-OH] (Ac-Gln-Pro-Ala-OH)

Observation after cooling ([2]; pH 2): Fine particles formed | Observation after cooling ([2]; pH 3): Opaque solution. No particles formed | Observation after cooling [3]: fine particles formed | Observation after cooling ([1]; pH 2): Fine particles formed
SMILES: CC(=O)N[C@@H](CCS(C)(=O)=O)C(=O)N[C@H](C(=O)N[C@H](C(=O)O)C(C)C)C(C)C [Ac-Met(O2)-Val-Val-OH] (Ac-[Met(O2)]-Val-Val-OH)
Susceptibility against oxidation by atmospheric oxygen [4]: significant lower susceptibility against oxidation

Observation after cooling ([1]; pH 0.9): No particles formed
SMILES: CC(=O)N[C@@H](CO)C(=O)N1CCC[C@H]1C(=O)N[C@@H](C)C(=O)O [Ac-Ser-Pro-Ala-OH] (Ac-Ser-Pro-Ala-OH)
